# Measured values reported in patent US6602882B1, “Quinoline derivatives and their use as antibacterial agents” (SmithKline Beecham p.l.c., priority 1998, dated 2003).
# Like-named read-outs stand apart in the source and are kept apart here.
# How the values were obtained:
# Format in all cases: cell-based
# S. aureus WCUH29 = assay: MIC against S. aureus WCUH29
# Experimental: (§1) The MIC (μg/ml) of compounds 1, 3 and 4 against various organisms was determined.
# E. faecalis I = assay: MIC against E. faecalis I
# Experimental: as §1
# S. aureus Oxford = assay: MIC against S. aureus Oxford
# Experimental: as §1
# M. catarrhalis Ravasio = assay: MIC against M. catarrhalis Ravasio
# Experimental: as §1
# S. aureus Carter 37 = assay: MIC against S. aureus Carter 37
# Experimental: as §1
# S. pneumoniae R6 = assay: MIC against S. pneumoniae R6
# Experimental: as §1
# [1] = Staphylococcus aureus, read-out: MIC
# [2] = Enterococcus faecalis, read-out: MIC
# [3] = Staphylococcus aureus, CARTER37, read-out: MIC
# [4] = Streptococcus pneumoniae, read-out: MIC
smiles,measurement,setting,value
"CCCCCCCN1CC[C@H](NC(=O)Nc2ccnc3ccc(OC)cc23)[C@H](CO)C1.O=C(O)C(=O)O (relative stereo) [Example 5, N-(cis-1-Heptyl-3-(R/S)-hydroxymethyl-4-(S/R)-piperidyl)-N′-(6-methoxyquinolin-4-yl)urea oxalate]",MIC,S. aureus WCUH29,1 µg/mL
same,MIC,E. faecalis I,4 µg/mL
same,MIC,S. aureus Oxford,1 µg/mL
"CCCCCCCN1CC[C@H](NC(=O)Nc2ccnc3ccc(OC)nc23)[C@H](CO)C1.O=C(O)C(=O)O (relative stereo) [Example 6, N-(cis-1-Heptyl-3-(R/S)-hydroxymethyl-4-(S/R)-piperidyl)-N′-(6-methoxy-[1,5]-naphthyridin-4-yl)urea Oxalate]",MIC,S. aureus WCUH29,1 µg/mL
same,MIC,E. faecalis I,8 µg/mL
same,MIC,S. aureus Oxford,0.5 µg/mL
"CCCCCC1CCC2CC(OC(=O)Nc3ccnc4ccc(OC)cc34)CCN2C1 (centres unmarked) [Example 1, 1-Aza-8-(ax)-[(6-methoxyquinolin-4-yl)-aminocarbonyloxy]-3-(ax)-n-pentyl-bicyclo[4,4,0]decane]",MIC,S. aureus WCUH29,4 µg/mL
same,MIC,E. faecalis I,8 µg/mL
same,MIC,M. catarrhalis Ravasio,32 µg/mL
same,MIC,S. aureus Carter 37,8 µg/mL
same,MIC,S. pneumoniae R6,1 µg/mL
same,MIC,S. aureus Oxford,2 µg/mL
"CCCCCCCN1CCC(OC(=O)Nc2ccnc3ccc(OC)cc23)CC1 [Example 3, 1-Heptyl-4-[N-(6-methoxyquinolin-4-yl)aminocarbonyloxy]piperidine]",MIC,S. aureus WCUH29; [1],4 µg/mL
same,MIC,E. faecalis I; [2],8 µg/mL
same,MIC,"M. catarrhalis Ravasio; Moraxella catarrhalis, read-out: MIC",16 µg/mL
same,MIC,S. aureus Carter 37; [3],8 µg/mL
same,MIC,S. pneumoniae R6; [4],4 µg/mL
same,MIC,S. aureus Oxford; [1],8 µg/mL
"CCCCCCCN1CCC(NC(=O)Nc2ccnc3ccc(OC)cc23)CC1 [Example 4, 1-Heptyl-4-(6-methoxyquinolin4-yl)ureidopiperidine]",MIC,S. aureus WCUH29; [1],8 µg/mL
same,MIC,E. faecalis I; [2],8 µg/mL
same,MIC,S. aureus Carter 37; [3],16 µg/mL
same,MIC,S. pneumoniae R6; [4],2 µg/mL
same,MIC,S. aureus Oxford; [1],16 µg/mL
CCCCCCCN1CCC(NC(=O)Nc2ccnc3ccc(OC)nc23)CC1.O=C(O)C(=O)O [Example 7],MIC,S. aureus WCUH29,1 µg/mL
same,MIC,E. faecalis I,8 µg/mL
same,MIC,S. aureus Oxford,1 µg/mL
